Measurements: US10669272B2, “Substituted naphthyridinone compounds useful as T cell activators” (BRISTOL-MYERS SQUIBB COMPANY, priority 2018, dated 2020)
Where two headings read alike, the source gives them in different places.

Key:
human DGKζ = molecular target: T1, human DGKζ (Homo sapiens, UniProt Q13574); assay: DGKζ LIPGLO assay (extruded liposome substrate), in vitro DGK inhibition; format: biochemical; conditions: read-out: DGKz LIPGLO IC50
T1 construct: TVMV protease cleavage site (C); Hexa-His (C); made in house; host or cells: Sf9 insect cells (baculovirus, Bac-to-Bac)
T1 sequence (Q13574 with tags, fused parts or gaps isoform Q13574-4): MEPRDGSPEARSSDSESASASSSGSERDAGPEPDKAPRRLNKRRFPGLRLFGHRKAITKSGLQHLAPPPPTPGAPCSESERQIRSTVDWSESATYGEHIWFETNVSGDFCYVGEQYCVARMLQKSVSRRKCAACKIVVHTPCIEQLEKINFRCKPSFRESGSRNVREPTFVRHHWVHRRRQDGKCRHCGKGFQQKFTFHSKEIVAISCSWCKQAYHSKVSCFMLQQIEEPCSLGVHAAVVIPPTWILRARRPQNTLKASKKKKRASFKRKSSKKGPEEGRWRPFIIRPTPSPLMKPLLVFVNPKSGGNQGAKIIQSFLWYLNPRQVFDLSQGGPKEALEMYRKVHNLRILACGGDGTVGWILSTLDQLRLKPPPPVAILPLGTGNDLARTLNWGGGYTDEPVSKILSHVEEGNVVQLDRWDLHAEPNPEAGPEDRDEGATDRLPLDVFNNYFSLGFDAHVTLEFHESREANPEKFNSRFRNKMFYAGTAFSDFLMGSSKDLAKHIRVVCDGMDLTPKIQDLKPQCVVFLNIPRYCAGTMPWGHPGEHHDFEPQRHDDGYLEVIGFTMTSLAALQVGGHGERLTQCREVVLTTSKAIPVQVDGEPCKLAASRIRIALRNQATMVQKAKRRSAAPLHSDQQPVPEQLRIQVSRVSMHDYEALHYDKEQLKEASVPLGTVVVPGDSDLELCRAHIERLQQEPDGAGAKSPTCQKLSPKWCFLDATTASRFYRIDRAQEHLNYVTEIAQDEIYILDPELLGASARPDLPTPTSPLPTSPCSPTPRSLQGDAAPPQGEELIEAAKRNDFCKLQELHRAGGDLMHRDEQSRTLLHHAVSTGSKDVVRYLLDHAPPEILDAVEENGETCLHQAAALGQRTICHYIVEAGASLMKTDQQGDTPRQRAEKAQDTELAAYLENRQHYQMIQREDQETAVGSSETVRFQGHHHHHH

human DGKα = molecular target: T2, human DGKα (Homo sapiens, UniProt P23743); assay: DGKα LIPGLO assay (extruded liposome substrate), in vitro DGK inhibition; format: biochemical; conditions: read-out: DGKa LIPGLO IC50
T2 construct: TVMV protease cleavage site (C); Hexa-His (C); made in house; host or cells: Sf9 insect cells (baculovirus, Bac-to-Bac)
T2 sequence (P23743 with tags, fused parts or gaps): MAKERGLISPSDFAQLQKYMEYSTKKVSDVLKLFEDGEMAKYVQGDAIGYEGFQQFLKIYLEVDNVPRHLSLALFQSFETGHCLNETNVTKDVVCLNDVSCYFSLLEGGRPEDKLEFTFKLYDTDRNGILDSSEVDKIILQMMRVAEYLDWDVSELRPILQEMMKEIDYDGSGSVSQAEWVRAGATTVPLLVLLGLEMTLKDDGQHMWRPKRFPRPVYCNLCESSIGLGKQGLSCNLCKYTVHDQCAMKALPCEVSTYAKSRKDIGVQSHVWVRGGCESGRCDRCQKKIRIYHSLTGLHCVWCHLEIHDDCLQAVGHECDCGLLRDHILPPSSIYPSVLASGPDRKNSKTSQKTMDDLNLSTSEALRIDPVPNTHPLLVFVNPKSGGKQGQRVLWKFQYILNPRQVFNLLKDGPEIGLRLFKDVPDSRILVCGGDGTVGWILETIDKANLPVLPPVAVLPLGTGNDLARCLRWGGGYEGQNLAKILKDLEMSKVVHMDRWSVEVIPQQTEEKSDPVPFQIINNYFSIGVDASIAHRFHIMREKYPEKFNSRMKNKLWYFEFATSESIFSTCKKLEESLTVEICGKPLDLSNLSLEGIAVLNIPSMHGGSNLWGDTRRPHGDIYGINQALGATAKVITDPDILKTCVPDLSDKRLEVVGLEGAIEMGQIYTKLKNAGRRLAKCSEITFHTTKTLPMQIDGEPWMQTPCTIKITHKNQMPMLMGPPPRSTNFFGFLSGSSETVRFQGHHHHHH

Human venous whole blood = assay: Human whole blood IFN-γ assay; format: cell-based; conditions: human whole blood, read-out: INFg Whole Blood Normalized Agonist EC50;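 also: blood from healthy donors exposed to compound for 1 h before stimulation with anti-CD3 and anti-CD28 at 1 µg/mL each, IFN-γ quantified in supernatant by AlphaLISA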
Experimental: Human Whole Blood IFN-γ Assay
Human venous whole blood (22.5 μL per well), obtained from healthy donors, was pre-treated with compounds for one hour at 37° C. in a humidified 95% air/5% CO2 incubator. The blood was stimulated with 2.5 μL anti-human CD3 and anti-CD28 mAb at a final concentration of 1 μg/mL each for 24 hours at 37° C. IFN-γ in the supernatants was measured using AlphLISA kit (Cat # AL217).

[1] = normalized to 3 μM reference compound with anti-CD3 plus anti-CD28 as 100% activation
[2] = Homo sapiens, 24 h, normalized to 3 μM reference compound with anti-CD3 plus anti-CD28 as 100% activation
[3] = Homo sapiens, 24 h, anti-CD3 plus anti-CD28, 24 hours, 3 μM reference compound = 100% activation
[4] = anti-CD3 plus anti-CD28, 24 hours, 3 μM reference compound = 100% activation

SMILES | IC50 (human DGKζ; liposome (LIPGLO) assay) | IC50 (human DGKα; liposome (LIPGLO) assay) | EC50 (Human venous whole blood; [1]) | EC50 (Human venous whole blood; [2]) | IC50 (human DGKζ; DGKζ liposome (LIPGLO) assay) | IC50 (human DGKα; DGKα liposome (LIPGLO) assay) | EC50 (Human venous whole blood; [3]) | EC50 (Human venous whole blood; [4])
CC(c1ccc2nccnc2c1)N1C[C@H](C)N(c2cc(=O)n(C)c3ccc(C#N)nc23)C[C@H]1C (single isomer, unassigned) [Example 651] | 950 nM | 50000 nM | 20000 nM | – | – | – | – | –
C[C@@H]1CN(c2cc(=O)n(C)c3ccc(C#N)nc23)[C@@H](C)CN1Cc1ccc(OC(F)(F)F)cc1C#N [Example 581] | 6700 nM | 1300 nM | – | 2700 nM | – | – | – | –
CC[C@H]1CN(C(C)c2ccc(OC(F)(F)F)cc2)[C@H](COC)CN1c1cc(=O)n(C)c2ccc(C#N)nc12 (single isomer, unassigned) [Example 1409] | 810 nM | 9200 nM | – | 2300 nM | – | – | – | –
C[C@@H]1CN(c2c(C#N)c(=O)n(C)c3ccc(C#N)nc23)CCN1C(c1ccccc1)c1cc(F)cc(F)c1 (single isomer, unassigned) [Example 875] | – | – | – | – | 510 nM | 1700 nM | 3100 nM | –
C[C@@H]1CN(c2c(C#N)c(=O)n(C)c3ccc(C#N)nc23)[C@@H](C)CN1C(c1ccc(F)cc1)c1cn(C)cn1 (single isomer, unassigned) [Example 853] | – | – | – | – | 38000 nM | 19000 nM | 20000 nM | –
C[C@@H]1CN(c2cc(=O)n(C)c3ccc(C#N)nc23)[C@@H](C)CN1C(c1ccc(F)cc1)c1cnn2ccccc12 (single isomer, unassigned) [Example 698] | 400 nM | 1700 nM | – | 1000 nM | – | – | – | –
CC[C@@H]1CN(c2cc(=O)n(C)c3ccc(C#N)nc23)[C@@H](CC)CN1Cc1cc(F)c(F)c(F)c1 [Example 1354] | 840 nM | 1600 nM | – | 1200 nM | – | – | – | –
C[C@@H]1CN(c2cc(=O)n(C)c3ccc(C#N)nc23)[C@@H](C)CN1C(c1ccc(Cl)cc1)c1ccccn1 (single isomer, unassigned) [Example 382] | 2500 nM | 220 nM | 2600 nM | – | – | – | – | –
C[C@@H]1CN(c2cc(=O)n(C)c3ccc(C#N)nc23)[C@@H](C)CN1C(c1ccc(F)cc1)c1cc(F)ccn1 (stereo partly drawn) [Example 472, 8-((2S,5R)-4-((4-fluorophenyl)(4-fluoropyridin-2-yl)methyl)-2,5-dimethylpiperazin-1-yl)-5-methyl-6-oxo-5,6-dihydro-1,5-naphthyridine-2-carbonitrile] | 2900 nM | 1300 nM | – | 1300 nM | – | – | – | –
C[C@@H]1CN(c2c(C#N)c(=O)n(C)c3ccc(C#N)nc23)[C@@H](C)CN1C(c1ccc(F)cc1)c1ccc(F)cn1 (stereo partly drawn) [Example 827] | – | – | – | – | 10000 nM | 4400 nM | – | 1300 nM
CC[C@H]1CN(C(c2ccc(F)cc2)c2cc(C3CC3)on2)[C@H](CC)CN1c1cc(=O)n(C)c2ccc(C#N)nc12 (single isomer, unassigned) [Example 1074] | 47 nM | 44 nM | – | 42 nM | – | – | – | –
C[C@@H]1CN(c2c(C#N)c(=O)n(C)c3ccc(C#N)nc23)[C@@H](C)CN1C(c1ccc(F)cc1)c1ccon1 (single isomer, unassigned) [Example 850] | – | – | – | – | 5400 nM | 510 nM | – | 3600 nM
CCC(c1ccc(OC(F)(F)F)cc1)N1C[C@H](CC)N(c2cc(=O)n(C)c3ccc(C#N)nc23)C[C@H]1CC (single isomer, unassigned) [Example 1060] | 630 nM | 340 nM | – | 2500 nM | – | – | – | –
CC(c1ccc(OC(F)(F)F)cc1)N1C[C@H](C)N(c2cc(=O)n(C)c3ccc(C#N)nc23)C[C@H]1C (single isomer, unassigned) [Example 435] | 4900 nM | 1100 nM | 2500 nM | – | – | – | – | –
C[C@@H]1CN(c2c(C#N)c(=O)n(C)c3ccc(C#N)nc23)[C@@H](C)CN1C(c1ccc(F)cc1)c1ccc(C(F)(F)F)cn1 (single isomer, unassigned) [Example 836] | – | – | – | – | 4900 nM | 4700 nM | 1100 nM | –
CC[C@H]1CN(C(c2cccc(F)c2)c2ccc(C)cn2)[C@H](C)CN1c1cc(=O)n(C)c2ccc(C#N)nc12 (single isomer, unassigned) [Example 1126] | 3000 nM | 1200 nM | 950 nM | – | – | – | – | –
C[C@@H]1CN(c2cc(=O)n(C)c3ccc(C#N)nc23)[C@@H](C)CN1C(c1ccc(F)cc1)c1cccc2ccnn12 (single isomer, unassigned) [Example 695] | 280 nM | 12000 nM | – | 4900 nM | – | – | – | –
C[C@@H]1CN(c2cc(=O)n(C)c3ccc(C#N)nc23)[C@@H](C)CN1C(c1ccc(F)cc1)c1cccc(N2CCOCC2)c1 (single isomer, unassigned) [Example 673] | 2300 nM | 4700 nM | 1300 nM | – | – | – | – | –

SMILES | IC50 (human DGKζ; liposome (LIPGLO) assay) | IC50 (human DGKα; liposome (LIPGLO) assay) | EC50 (Human venous whole blood; [1]) | EC50 (Human venous whole blood; [2]) | IC50 (human DGKζ; DGKζ liposome (LIPGLO) assay) | IC50 (human DGKα; DGKα liposome (LIPGLO) assay) | EC50 (Human venous whole blood; [3]) | EC50 (Human venous whole blood; [4])
C[C@@H]1CN(c2cc(=O)n(C)c3ccc(C#N)nc23)[C@@H](C)CN1C(c1ccc(Cl)cc1)c1ccccn1 (mixture of isomers) [Example 403, 8-((2S,5R)-4-((4-chlorophenyl)(pyridin-2-yl)methyl)-2,5-dimethylpiperazin-1-yl)-5-methyl-6-oxo-5,6-dihydro-1,5-naphthyridine-2-carbonitrile] | 460 nM | 140 nM | – | 170 nM | – | – | – | –
CC[C@H]1CN(C(c2ccc(F)cc2)c2cccc(C(F)(F)F)n2)[C@H](CC)CN1c1cc(=O)n(C)c2ccc(C#N)nc12 (single isomer, unassigned) [Example 1045] | 120 nM | 560 nM | – | 170 nM | – | – | – | –
C[C@@H]1CN(c2cc(=O)n(C)c3ccc(C#N)nc23)[C@@H](C)CN1C(c1ccc(F)cc1)c1nc(C2CC2)cs1 (single isomer, unassigned) [Example 700] | 95 nM | 380 nM | 120 nM | – | – | – | – | –
CC[C@H]1CN(C(c2ccc(F)cc2)c2cocn2)[C@H](CC)CN1c1cc(=O)n(C)c2ccc(C#N)nc12 (single isomer, unassigned) [Example 1069] | 910 nM | 60 nM | 2100 nM | – | – | – | – | –
CC[C@@H]1CN(c2cc(=O)n(C)c3ccc(C#N)nc23)[C@@H](C)CN1C(c1ccc(F)cc1)c1ccon1 (single isomer, unassigned) [Example 1115] | 1400 nM | 84 nM | 800 nM | – | – | – | – | –
C[C@@H]1CN(Cc2c(F)cc(F)cc2F)[C@@H](CO)CN1c1cc(=O)n(C)c2ccc(C#N)nc12 [Example 1182] | 1200 nM | 34000 nM | – | 20000 nM | – | – | – | –
CC(=O)NC[C@@H]1CN(c2cc(=O)n(C)c3ccc(C#N)nc23)[C@@H](C)CN1C(c1ccc(F)cc1)c1ccc(F)cc1 [Example 1165, N-(((2R,5S)-1-(bis(4-fluorophenyl)methyl)-4-(6-cyano-1-methyl-2-oxo-1,2-dihydro-1,5-naphthyridin-4-yl)-5-methylpiperazin-2-yl)methyl)acetamide] | 1100 nM | 3400 nM | – | 240 nM | – | – | – | –
Cc1cc(C(c2ccc(F)cc2)N2C[C@H](C)N(c3cc(=O)n(C)c4ccc(C#N)nc34)C[C@H]2C)no1 (single isomer, unassigned) [Example 733] | – | – | – | – | 1500 nM | 4100 nM | – | 3500 nM
C[C@@H]1CN(c2cc(=O)n(C)c3ccc(C#N)nc23)[C@@H](C)CN1C(c1ccc(F)cc1)c1nnnn1C(C)(C)C (single isomer, unassigned) [Example 771] | – | – | – | – | 8500 nM | 6300 nM | – | 10000 nM
CC(c1ccc(OC(F)(F)F)cc1)N1C[C@H](C)N(c2cc(=O)n(C)c3ccc(C#N)nc23)C[C@H]1CC#N (single isomer, unassigned) [Example 1412] | 1700 nM | 290 nM | – | 1600 nM | – | – | – | –
Cc1cc(CN2C[C@H](C)N(c3cc(=O)n(C)c4ccc(C#N)nc34)C[C@H]2C)no1 [Example 1424] | 14000 nM | 3700 nM | – | 20000 nM | – | – | – | –
C[C@@H]1CN(c2c(C#N)c(=O)n(C)c3ccc(C#N)nc23)[C@@H](C)CN1C(c1ccc(Cl)cc1)c1ncccc1F (single isomer, unassigned) [Example 819] | – | – | – | – | 2900 nM | 2300 nM | 2200 nM | –
CC[C@@H]1CN(c2cc(=O)n(C)c3ccc(C#N)nc23)[C@@H](C)CN1C(C)c1ccc(OC(C)C)cc1 (single isomer, unassigned) [Example 1349] | 2200 nM | 5400 nM | 580 nM | – | – | – | – | –
CC[C@H]1CN(C(c2ccc(F)cc2)c2ccc(C#N)cc2)[C@H](C)CN1c1cc(=O)n(C)c2ccc(C#N)nc12 (stereo partly drawn) [Example 1124] | 3100 nM | 880 nM | 1400 nM | – | – | – | – | –
C[C@@H]1CN(c2c(C#N)c(=O)n(C)c3ccc(C#N)nc23)[C@@H](C)CN1C(c1ccc(F)cc1)c1cncn1C (stereo partly drawn) [Example 849] | – | – | – | – | 130000 nM | > 250000 nM | – | 20000 nM
CC[C@H]1CN(C(C)c2ccc(F)c(F)c2)[C@H](C)CN1c1cc(=O)n(C)c2ccc(C#N)nc12 (single isomer, unassigned) [Example 1139] | 100 nM | 64 nM | 1100 nM | – | – | – | – | –
C[C@@H]1CN(c2cc(=O)n(C)c3ccc(C#N)nc23)[C@@H](C)CN1C(c1ccc(F)cc1)c1nc(C2CN(C)C2)no1 (single isomer, unassigned) [Example 1298] | 2700 nM | 2600 nM | – | 13000 nM | – | – | – | –
C[C@@H]1CN(c2c(F)c(=O)n(C)c3ccc(C#N)nc23)[C@@H](C)CN1C(c1ccc(F)cc1)c1cccc(F)c1 (single isomer, unassigned) [Example 331] | 1900 nM | 1700 nM | 20000 nM | – | – | – | – | –
